Data set [1] is described as follows: Solubility under the protocol conditions. The data set is classed as physicochemical. The settings on record: compounds dissolved in DMSO and diluted in medium. On the procedure:
Among the 43 compounds tested derivatives 81, 96, 97, 100–104 were insoluble under the protocol conditions and, consequently, they were eliminated from further experiments.
Compounds were dissolved in dimethyl sulfoxide (DMSO, Sigma-Aldrich, St. Louis, MO, USA) to 125 mM. The final concentration of DMSO in the compounds dilutions was not higher than 1.00%. Drug, sulfadiazine [4-amino-N-(2-pyrimidinyl)benzenesulfonamide] (S8626, Sigma-Aldrich) was dissolved in 1M sodium hydroxide (NaOH, Sigma-Aldrich) to 400 mM. Final concertation of NaOH in sulfadiazine dilutions was not higher than 2.5%. Ready solution sulfadiazine and trimethoprim in weight ratio 5:1 (Sul-Tridin 24%, 200 mg/mL [800 mM] + 40 mg/mL [137.78 mM]– ScanVet Poland). Dilution of the all compounds and drugs were freshly prepared before the cells were exposed in appropriate medium.

The subject of data set [2] is T. gondii tachyzoites (RH strain). Nature of the data set: In vitro anti-T. gondii activity, [3H]-uracil incorporation assay in infected Hs27 cells. The settings on record: for IC50: Toxoplasma gondii, T. gondii RH tachyzoites proliferation in Hs27 cells, na = not active in the tested concentration range; for SR (selectivity ratio): ratio of CC50 (L929) to IC50 (T. gondii); for inhibition of proliferation, fold better than sulfadiazine + trimethoprim (5:1): relative to sulfadiazine + trimethoprim (5:1). The data set is classed as cell-based, Toxoplasma gondii.

A short description of data set [3]: Cytotoxic assay (MTT, ISO 10993-5:2009(E)), 24 h treatment. The data set is classed as cell-based. To be noted: L929 mouse fibroblast cells, L929 mouse fibroblasts, values above highest tested concentration extrapolated. As to the method: The L929 mouse fibroblast (ATTC® CCL-1™, Manassas, VA, USA) were culturing according to the ATCC product sheet. […] The cell viability assay were performed precisely according to international standards (ISO 10993-5:2009(E)), using the tetrazolium salt [3-(4,5-dimethylthiazol-2-yl)-2,5-diphenyltetrazolium bromide] (MTT, Sigma-Aldrich) and mouse fibroblasts L929 cells. Cells (1 × 10^4 per well) were treated 24 h with compounds or drug in different concentration range. The optical density at 570 nm on the ELISA reader (Multiskan EX, Labsystems, Vienna, VA, USA), was read. The results were expressed as a percentage of viability compared to untreated cells. […] The CC30/CC50 represents the concentration of tested compounds or drugs that was required for 30% or 50% cells proliferation inhibition in vitro. According to the previously mentioned ISO 10993-5:2009(E) norm, the CC30 value is recognized as non-cytotoxic concentration for the cell line. All experiments were performed in triplicate.

For orientation: melting point means the temperature of the solid-liquid transition. `O=C(O)CC1SC(=NN=Cc2ccccc2O)N(c2ccc(Cl)cc2)C1=O` (stereo not drawn) [Compound 81, [3-(4-Chlorophenyl)-2-{[(2-hydroxyphenyl)methylidene]hydrazinylidene}-4-oxo-1,3-thiazolidin-5-yl]acetic acid] gave a melting point of 234 to 236 °C. Further, the “solubility under the protocol conditions” value in data set [1] is “insoluble”.
What is called IC50 is the concentration that inhibits the measured activity by half. Lower therefore signals greater potency in that assay. A word on the CC50: it is the concentration at which the toxic effect on the cells reaches its halfway point. Turning to `COC(=O)C=C1SC(=NN=Cc2ccc(O)c(Cl)c2)N(c2ccccc2)C1=O` [Compound 94, Methyl [2-{[(3-chloro-4-hydroxyphenyl)methylidene]hydrazinylidene}-4-oxo-3-phenyl-1,3-thiazolidin-5-ylidene]acetate], the melting point was 238 to 240 °C. In data set [2], it took 27.7 µM to reach half-maximal inhibition (IC50); the “SR (selectivity ratio)” value turned out to be 17.07; the “inhibition of proliferation, fold better than sulfadiazine + trimethoprim (5:1)” value was 18 fold. For the same compound, the cytotoxic concentration (CC50) at 24 h in data set [3] was 474 µM.
As for `CCOc1cc(C=NN=C2SC(=CC(=O)OC)C(=O)N2c2ccccc2Cl)ccc1O` [Compound 96, Methyl [3-(2-chlorophenyl)-2-{[(3-ethoxy-4-hydroxyphenyl)methylidene]hydrazinylidene}-4-oxo-1,3-thiazolidin-5-ylidene]acetate], the melting point lay in the range of 216 to 218 °C. Also, the “solubility under the protocol conditions” value in data set [1] is on record as “insoluble”.
For the compound `CCOc1cc(C=NN=C2SC(CC(=O)O)C(=O)N2c2ccc(Cl)cc2)ccc1O` (stereo not drawn) [Compound 85], the melting point was in the range of 224 to 226 °C. In data set [2], the IC50 came out at 165 µM and the “SR (selectivity ratio)” value came out at 4.59. Besides, in data set [3], the CC50 at 24 h is 759 µM.
Turning to `COC(=O)C=C1SC(=NN=Cc2ccccc2O)N(c2ccc(Cl)cc2)C1=O` [Compound 97, Methyl [3-(4-chlorophenyl)-2-{[(2-hydroxyphenyl)methylidene]hydrazinylidene}-4-oxo-1,3-thiazolidin-5-ylidene]acetate], the melting point was in the range of 214 to 216 °C. Also, the “solubility under the protocol conditions” value in data set [1] is reported as “insoluble”.
Regarding `COC(=O)C=C1SC(=NN=Cc2ccc(O)c(Br)c2)N(c2ccccc2)C1=O` [Compound 95, Methyl [2-{[(3-bromo-4-hydroxyphenyl)methylidene]hydrazinylidene}-4-oxo-3-phenyl-1,3-thiazolidin-5-ylidene]acetate], the melting point was in the range of 236 to 238 °C. In addition, in data set [2], half-maximal inhibition (IC50) required 28.3 µM; the “SR (selectivity ratio)” value is 15.11; the “inhibition of proliferation, fold better than sulfadiazine + trimethoprim (5:1)” value is reported as 18 fold. Further, the CC50 at 24 h in data set [3] is 428 µM.
`COC(=O)C=C1SC(=NN=Cc2ccc(O)cc2)N(c2ccccc2)C1=O` [Compound 91, Methyl [2-{[(4-hydroxyphenyl)methylidene]hydrazinylidene}-4-oxo-3-phenyl-1,3-thiazolidin-5-ylidene]acetate] registered a melting point of 222 to 224 °C. Moreover, in data set [2], 92.9 µM corresponded to half-maximal inhibition (IC50) and the “SR (selectivity ratio)” value is 5.31. Further, the CC50 at 24 h in data set [3] is 493 µM.

The values are drawn from PMC6749389, “Synthesis and In Vitro Anti-Toxoplasma gondii Activity of Novel Thiazolidin-4-one Derivatives” (Molecules, 2019).
